The values below are quoted from earlier work in US5177084A, “Therapeutic use of substituted benzenes, formulations thereof and novel substituted benzenes” (Merck Sharp & Dohme Ltd., priority 1989, dated 1993).

For the series the following is noted: literature report, test not specified.

As for `COc1ccc(C2(O)CN3CCC2CC3)cc1.O=C(O)C(=O)O` (centres unmarked) [Example 2, 3-Hydroxy-3-(4-Methoxyphenyl)quinuclidine Hydrogen Oxalate], the pharmacological activity entry is “did not display pharmacological activity”.

On to `O=C(O)C(=O)O.OC1(c2ccc(Cl)cc2)CN2CCC1CC2` (centres unmarked) [Example 4, 3-(4-Chlorophenyl)-3-hydroxy quinuclidine Hydrogen Oxalate], for which the pharmacological activity result is reported as “did not display pharmacological activity”.
